Reference: ChEMBL document CHEMBL4808219, “Exploration of Benzo[b]carbazole-6,11-diones as anticancer agents: Synthesis and studies of hTopoIIα inhibition and apoptotic effects” (Bioorg Med Chem Lett, 2021)
The source made the active and inactive calls. No cut-off for these calls is given here.

Experiments:
[1] = system: MDA-MB-231; experiment: Induction of apoptosis in human MDA-MB-231cells as increase in cleaved PARP1 level by measuring fold change in cleaved PARP1 expression by Western blot analysis relative to control; assay type: functional
[2] = system: MDA-MB-231; experiment: Induction of apoptosis in human MDA-MB-231 cells assessed as upregulation of Bax level by measuring fold change in Bax expression by Western blot analysis relative to control; assay type: functional
[3] = system: MDA-MB-231; experiment: Cytotoxicity against human MDA-MB-231 cells assessed as reduction in cell viability incubated for 48 hrs by MTT assay; assay type: functional, cell-based; conditions: Homo sapiens, MDA-MB-231, 48 h; read-out: IC50
[4] = system: MDA-MB-231; experiment: Cytotoxicity against human MDA-MB-231 cells assessed as increase in deformation and shrinkage of nuclei by DAPI staining-based fluorescence microscopic analysis; assay type: functional, cell-based; conditions: dose 0.5-2.5 µM
[5] = system: MDA-MB-231; experiment: Cytotoxicity against human MDA-MB-231 cells assessed as normal nuclei at 5 uM by DAPI staining based fluorescence microscopic analysis (reference value: 93.33 to 95.83%); assay type: functional
[6] = Cytotoxicity against human H357 cells assessed as reduction in cell viability incubated for 48 hrs by MTT assay; assay type: functional, cell-based; conditions: Homo sapiens, H357, 48 h; read-out: IC50
[7] = system: MCF-10A; experiment: Cytotoxicity against human MCF-10A cells; assay type: cell-based
[8] = system: MDA-MB-231; experiment: Cytotoxicity against human MDA-MB-231 cells assessed as normal nuclei at 2 uM by DAPI staining based fluorescence microscopic analysis (reference value: 85.71 to 95.83%); assay type: functional
[9] = system: MDA-MB-231; experiment: Genotoxicity in human MDA-MB-231 cells assessed as induction of DNA damage at 3 uM incubated for 24 hrs by comet assay; assay type: functional, cell-based
[10] = system: HEK-293T; experiment: Cytotoxicity against human HEK293T cells assessed as reduction in cell viability incubated for 48 hrs by MTT assay; assay type: cell-based
[11] = system: MDA-MB-231; experiment: Induction of apoptosis in human MDA-MB-231cells assessed as downregulation of Bcl-xl level by measuring fold change in Bcl-xl expression by Western blot analysis relative to control; assay type: functional
[12] = system: MCF7; experiment: Cytotoxicity against human MCF7 cells assessed as reduction in cell viability incubated for 48 hrs by MTT assay; assay type: functional, cell-based; conditions: Homo sapiens, MCF7, 48 h; read-out: IC50
[13] = system: MDA-MB-231; experiment: Cytotoxicity against human MDA-MB-231 cells assessed as normal nuclei at 3 uM by DAPI staining based fluorescence microscopic analysis (reference value: 93.33 to 95.83%); assay type: functional
[14] = system: MDA-MB-231; experiment: Cytotoxicity against human MDA-MB-231 cells assessed as reduction in cell survival by clonogenic assay; assay type: functional, cell-based
[15] = system: MDA-MB-231; experiment: Cytotoxicity against human MDA-MB-231 cells assessed as apoptotic nuclei at 3 uM by DAPI staining based fluorescence microscopic analysis (reference value: 4.17 to 6.67%); assay type: functional
[16] = system: MDA-MB-231; experiment: Cytotoxicity against human MDA-MB-231 cells assessed as normal nuclei at 4 uM by DAPI staining based fluorescence microscopic analysis (reference value: 93.33 to 95.83%); assay type: functional
[17] = system: MDA-MB-231; experiment: Cytotoxicity against human MDA-MB-231 cells assessed as normal nuclei at 1 uM by DAPI staining based fluorescence microscopic analysis (reference value: 85.71 to 95.83%); assay type: functional
[18] = system: MDA-MB-231; experiment: Cytotoxicity against human MDA-MB-231 cells assessed as apoptotic nuclei at 1 uM by DAPI staining based fluorescence microscopic analysis (reference value: 4.17 to 14.29%); assay type: functional
[19] = system: MDA-MB-231; experiment: Cytotoxicity against human MDA-MB-231 cells assessed as apoptotic nuclei at 2 uM by DAPI staining based fluorescence microscopic analysis (reference value: 4.17 to 14.29%); assay type: functional
[20] = system: MDA-MB-231; experiment: Cytotoxicity against human MDA-MB-231 cells assessed as apoptotic nuclei at 5 uM by DAPI staining based fluorescence microscopic analysis (reference value: 4.17 to 6.67%); assay type: functional
[21] = system: MDA-MB-231; experiment: Cytotoxicity against human MDA-MB-231 cells assessed as apoptotic nuclei at 4 uM by DAPI staining based fluorescence microscopic analysis (reference value: 4.17 to 6.67%); assay type: functional

| SMILES | fold change (FC) [1] | fold change (FC) [2] | IC50 [3] [µM] | Activity [4] | Activity [5] [%] | IC50 [6] [µM] | IC50 [7] [µM] | Activity [8] [%] | Activity [9] | IC50 [10] [µM] | fold change (FC) [11] | IC50 [12] [µM] | Activity [13] [%] | IC50 [14] [µM] | Activity [15] [%] | Activity [16] [%] | Activity [17] [%] | Activity [18] [%] | Activity [19] [%] | Activity [20] [%] | further results |
| --- | --- | --- | --- | --- | --- | --- | --- | --- | --- | --- | --- | --- | --- | --- | --- | --- | --- | --- | --- | --- | --- |
| O=C1C=C(Nc2cccc3ccccc23)C(=O)c2ccccc21 | 0.8 | 2.3 | 3.2 | Dose-Dependent Effect | 11.11 | 5.8 | 101 | 71.43 | Active | 5.6 | 0.4 | 3.1 | 44.44 | 2.4 | 55.56 | 25.64 | 88.1 | 11.9 | 28.57 | 88.89 | Activity [21]: 74.36% |
| O=C1c2cccc(O)c2C(=O)c2c1[nH]c1ccccc21 | 1 | 2.2 | 3.2 | Dose-Dependent Effect | 26.67 | 3.6 | 105 | 63.64 | Active | 4 | 0.2 | 3 | 51.52 | 2.7 | 48.48 | 44.44 | 74.07 | 25.93 | 36.36 | 73.33 | Activity [21]: 55.56% |
